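Following 48 hours of exposure in 96-well plates, responses at five concentrations were used to interpolate endpoints linearly. The concentration for 50% growth inhibition is given as GI50. TGI marks complete inhibition of growth.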
Legend:
Assay in all cases: inhibition of tumour cell growth, NCI panel, 48 h
A549 NSCLC = tested on: A549 NSCLC
SR leukemia = tested on: SR leukemia
MALME-3M melanoma = tested on: MALME-3M melanoma
M14 melanoma = tested on: M14 melanoma
HOP-62 NSCLC = tested on: HOP-62 NSCLC
SN12C renal = tested on: SN12C renal
SK-MEL-2 melanoma = tested on: SK-MEL-2 melanoma
NCI-H226 lung = tested on: NCI-H226 lung
MCF7 breast = tested on: MCF7 breast
HS 578T breast = tested on: HS 578T breast
U251 CNS = tested on: U251 CNS
HCC-2998 colon = tested on: HCC-2998 colon
CAKI-1 renal = tested on: CAKI-1 renal
SF-539 CNS = tested on: SF-539 CNS
SK-MEL-5 melanoma = tested on: SK-MEL-5 melanoma
UO-31 renal = tested on: UO-31 renal
SNB-75 CNS = tested on: SNB-75 CNS
OVCAR-8 ovarian = tested on: OVCAR-8 ovarian
SF-268 CNS = tested on: SF-268 CNS
MOLT-4 leukemia = tested on: MOLT-4 leukemia
TK-10 renal = tested on: TK-10 renal
OVCAR-3 ovarian = tested on: OVCAR-3 ovarian
IGROV1 ovarian = tested on: IGROV1 ovarian
MDA-MB-231 breast = tested on: MDA-MB-231 breast
CCRF-CEM leukemia = tested on: CCRF-CEM leukemia
UACC-62 melanoma = tested on: UACC-62 melanoma
MDA-MB-435 = tested on: MDA-MB-435
COLO 205 colon = tested on: COLO 205 colon
PC-3 prostate = tested on: PC-3 prostate
786-0 renal = tested on: 786-0 renal
K-562 leukemia = tested on: K-562 leukemia
KM12 colon = tested on: KM12 colon
ACHN renal = tested on: ACHN renal
HOP-92 NSCLC = tested on: HOP-92 NSCLC
HCT-116 colon = tested on: HCT-116 colon
EKVX NSCLC = tested on: EKVX NSCLC
NCI-H522 lung = tested on: NCI-H522 lung
NCI/ADR-RES ovarian = tested on: NCI/ADR-RES ovarian
LOX IMVI melanoma = tested on: LOX IMVI melanoma
SF-295 CNS = tested on: SF-295 CNS
HT29 colon = tested on: HT29 colon
SW-620 colon = tested on: SW-620 colon
HCT-15 colon = tested on: HCT-15 colon
BT-549 breast = tested on: BT-549 breast
SNB-19 CNS = tested on: SNB-19 CNS
OVCAR-5 ovarian = tested on: OVCAR-5 ovarian
T-47D breast = tested on: T-47D breast
UACC-257 melanoma = tested on: UACC-257 melanoma
RXF 393 renal = tested on: RXF 393 renal
SK-MEL-28 melanoma = tested on: SK-MEL-28 melanoma
A498 renal = tested on: A498 renal
OVCAR-4 ovarian = tested on: OVCAR-4 ovarian
NCI-H23 lung = tested on: NCI-H23 lung
RPMI-8226 leukemia = tested on: RPMI-8226 leukemia
NCI-H460 lung = tested on: NCI-H460 lung
DU-145 prostate = tested on: DU-145 prostate
HL-60(TB) leukemia = tested on: HL-60(TB) leukemia

## FC(F)(F)c1ccc(-c2cncn2-c2ccccc2)cc1
A549 NSCLC
  GI50: 11.9 µM
  TGI: 27.5 µM
SR leukemia
  GI50: 1.18 µM
  TGI: 7.89 µM
MALME-3M melanoma
  GI50: 21.1 µM
  TGI: 43.1 µM
M14 melanoma
  GI50: 13 µM
  TGI: 27.1 µM
HOP-62 NSCLC
  GI50: 2.72 µM
  TGI: 20.7 µM
SN12C renal
  GI50: 10.4 µM
  TGI: 23.5 µM
SK-MEL-2 melanoma
  GI50: 18.2 µM
  TGI: 37.9 µM
NCI-H226 lung
  GI50: 10.5 µM
  TGI: 27.8 µM
MCF7 breast
  GI50: 22.7 µM
  TGI: > 100 µM
HS 578T breast
  GI50: 16.4 µM
  TGI: 47.8 µM
U251 CNS
  GI50: 6.89 µM
  TGI: 30.6 µM
HCC-2998 colon
  GI50: 12.3 µM
  TGI: 26.2 µM
CAKI-1 renal
  GI50: 4.71 µM
  TGI: > 100 µM
SF-539 CNS
  GI50: 15.6 µM
  TGI: 41.8 µM
SK-MEL-5 melanoma
  GI50: 13 µM
  TGI: 26.9 µM
UO-31 renal
  GI50: 4.59 µM
  TGI: 21.5 µM
SNB-75 CNS
  GI50: 15.3 µM
  TGI: 40.7 µM
OVCAR-8 ovarian
  GI50: 13.6 µM
  TGI: 33.8 µM
SF-268 CNS
  GI50: 36.6 µM
  TGI: > 100 µM
MOLT-4 leukemia
  GI50: 3.9 µM
  TGI: 27.2 µM
TK-10 renal
  GI50: 24.2 µM
  TGI: > 100 µM
OVCAR-3 ovarian
  GI50: 16.6 µM
  TGI: 38.9 µM
IGROV1 ovarian
  GI50: 12.3 µM
  TGI: 38.6 µM
MDA-MB-231 breast
  GI50: 11.8 µM
  TGI: 28.6 µM
CCRF-CEM leukemia
  GI50: 2.84 µM
  TGI: 15.7 µM
UACC-62 melanoma
  GI50: 11.2 µM
  TGI: 24.9 µM
MDA-MB-435
  GI50: 24.4 µM
  TGI: 88.5 µM
COLO 205 colon
  GI50: 19.1 µM
  TGI: 47.1 µM
PC-3 prostate
  GI50: 13 µM
  TGI: 35.6 µM
786-0 renal
  GI50: 10 µM
  TGI: 21.9 µM
K-562 leukemia
  GI50: 20.9 µM
  TGI: 77.6 µM
KM12 colon
  GI50: 20.6 µM
  TGI: 70.8 µM
ACHN renal
  GI50: 3.68 µM
  TGI: 23 µM
HOP-92 NSCLC
  GI50: 2.89 µM
  TGI: 18.9 µM
HCT-116 colon
  GI50: 1.88 µM
  TGI: 16.3 µM
EKVX NSCLC
  GI50: 17.1 µM
  TGI: 54.3 µM
NCI-H522 lung
  GI50: 8.54 µM
  TGI: 25.2 µM
NCI/ADR-RES ovarian
  GI50: 7.13 µM
  TGI: 30.2 µM
LOX IMVI melanoma
  GI50: 5.68 µM
  TGI: 23.2 µM
SF-295 CNS
  GI50: 19.3 µM
  TGI: > 100 µM
HT29 colon
  GI50: 21.3 µM
  TGI: > 100 µM
SW-620 colon
  GI50: 4.03 µM
  TGI: 57.1 µM
HCT-15 colon
  GI50: 18.1 µM
  TGI: > 100 µM
BT-549 breast
  GI50: 15.1 µM
  TGI: 40.4 µM
SNB-19 CNS
  GI50: 10.4 µM
  TGI: 38.5 µM
OVCAR-5 ovarian
  GI50: 23.5 µM
  TGI: 79.4 µM
T-47D breast
  GI50: 15.5 µM
  TGI: > 100 µM
UACC-257 melanoma
  GI50: 19.9 µM
  TGI: 49 µM
RXF 393 renal
  GI50: 16.6 µM
  TGI: 32.2 µM
SK-MEL-28 melanoma
  GI50: 39.1 µM
  TGI: > 100 µM
A498 renal
  GI50: 12.9 µM
  TGI: 27.1 µM
OVCAR-4 ovarian
  GI50: 36 µM
  TGI: > 100 µM
NCI-H23 lung
  GI50: 10.4 µM
  TGI: 34.4 µM
RPMI-8226 leukemia
  GI50: 5.75 µM
  TGI: 27.2 µM
NCI-H460 lung
  GI50: 16.9 µM
  TGI: > 100 µM
DU-145 prostate
  GI50: 6.28 µM
  TGI: 26.2 µM
HL-60(TB) leukemia
  GI50: 12.7 µM
  TGI: 35.6 µM

— PubChem BioAssay (NCI)
